Data: patent US5202315A, “Cephalosporin compounds” (Lucky, Ltd., priority 1989, dated 1993)
In brackets after ≈: the same amount, converted by molar mass. Like-named read-outs stand apart in the source and are kept apart here.

Experiments:
[1] = In-vivo absorbency (plasma concentrations & pharmacokinetic parameters); set-up: species or system SD rat (male); conditions: plasma, SD male rat, iv 20 mg/kg; for half-life: rat, iv, 20 mg/kg
Text: The blood samples from the femoral vein of the rats were taken every hour after administration, and analyzed by bio-assay(agar well method).
Tested animal: SD male Rat (220~340 g)

[2] = as above; set-up: species or system SD rat (male); conditions: plasma, SD male rat, iv 20 mg/kg, read-out: Plasma Conc.
[3] = test system: Pseudomonas aeruginosa ATCC 10145; assay: Antibacterial activity, MIC; type: cell-based; conditions: ATCC10145, ATCC 10145, agar two-fold dilution, 37° C., 20 hours, read-out: MIC
How it was run: (§1)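 Incubation at 37 °C for 20 h followed inoculation of 2 μl standard strain (10^7 CFU/ml) onto agar carrying the compound. Compound was incorporated into Mueller-Hinton agar as two-fold serial dilutions.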

[4] = test system: Enterobacter cloacae ATCC 27508; assay: Antibacterial activity, MIC; type: cell-based; conditions: ATCC27508, ATCC 27508, agar two-fold dilution, 37° C., 20 hours, read-out: MIC
How it was run: as §1

[5] = test system: Pseudomonas aeruginosa ATCC 27853; assay: Antibacterial activity, MIC; type: cell-based; conditions: ATCC27853, ATCC 27853, agar two-fold dilution, 37° C., 20 hours, read-out: MIC
How it was run: as §1

[6] = test system: Providencia rettgeri ATCC 9250; assay: Antibacterial activity, MIC; type: cell-based; conditions: ATCC9250, agar two-fold dilution, 37° C., 20 hours
How it was run: as §1

[7] = test system: Morganella morganii ATCC 8076h; assay: Antibacterial activity, MIC; type: cell-based; conditions: ATCC8076H, agar two-fold dilution, 37° C., 20 hours
How it was run: as §1

[8] = test system: Staphylococcus aureus ATCC 6538p; assay: Antibacterial activity, MIC; type: cell-based; conditions: ATCC6538P, ATCC 6538p, agar two-fold dilution, 37° C., 20 hours, read-out: MIC
How it was run: as §1

[9] = test system: Bacillus cereus ATCC 11778; assay: Antibacterial activity, MIC; type: cell-based; conditions: ATCC11778, ATCC 11778, agar two-fold dilution, 37° C., 20 hours, read-out: MIC
How it was run: as §1

[10] = test system: Enterobacter aerogenes ATCC 29751; assay: Antibacterial activity, MIC; type: cell-based; conditions: Klebsiella aerogenes, ATCC29751; ATCC 29751; agar two-fold dilution, 37° C., 20 hours; read-out: MIC
How it was run: as §1

[11] = test system: Bacillus megaterium ATCC 9885; assay: Antibacterial activity, MIC; type: cell-based; conditions: Priestia megaterium, ATCC9885; ATCC 9885; agar two-fold dilution, 37° C., 20 hours; read-out: MIC
How it was run: as §1

[12] = test system: Micrococcus luteus ATCC 9341; assay: Antibacterial activity, MIC; type: cell-based; conditions: ATCC9341, ATCC 9341, agar two-fold dilution, 37° C., 20 hours, read-out: MIC
How it was run: as §1

[13] = test system: Citrobacter freundii ATCC 8090; assay: Antibacterial activity, MIC; type: cell-based; conditions: ATCC8090, ATCC 8090, agar two-fold dilution, 37° C., 20 hours, read-out: MIC
How it was run: as §1

[14] = test system: Salmonella typhimurium ATCC 14028; assay: Antibacterial activity, MIC; type: cell-based; conditions: Salmonella enterica; ATCC 14028; agar two-fold dilution, 37° C., 20 hours; read-out: MIC
How it was run: as §1

[15] = test system: Proteus mirabilis ATCC 25933; assay: Antibacterial activity, MIC; type: cell-based; conditions: ATCC25933, ATCC 25933, agar two-fold dilution, 37° C., 20 hours, read-out: MIC
How it was run: as §1

[16] = test system: Shigella flexneri ATCC 11836; assay: Antibacterial activity, MIC; type: cell-based; conditions: ATCC11836, agar two-fold dilution, 37° C., 20 hours
How it was run: as §1

[17] = test system: Staphylococcus aureus ATCC 10537; assay: Antibacterial activity, MIC; type: cell-based; conditions: ATCC10537, ATCC 10537, agar two-fold dilution, 37° C., 20 hours, read-out: MIC
How it was run: as §1

[18] = test system: Staphylococcus epidermidis ATCC 12228; assay: Antibacterial activity, MIC; type: cell-based; conditions: ATCC12228, ATCC 12228, agar two-fold dilution, 37° C., 20 hours, read-out: MIC
How it was run: as §1

[19] = test system: Serratia marcescens ATCC 27117; assay: Antibacterial activity, MIC; type: cell-based; conditions: ATCC27117, ATCC 27117, agar two-fold dilution, 37° C., 20 hours, read-out: MIC
How it was run: as §1

[20] = test system: Klebsiella pneumoniae ATCC 10031; assay: Antibacterial activity, MIC; type: cell-based; conditions: ATCC10031, ATCC 10031, agar two-fold dilution, 37° C., 20 hours, read-out: MIC
How it was run: as §1

[21] = test system: Streptococcus faecalis ATCC 29212; assay: Antibacterial activity, MIC; type: cell-based; conditions: Enterococcus faecalis, ATCC29212; ATCC 29212; agar two-fold dilution, 37° C., 20 hours; read-out: MIC
How it was run: as §1

[22] = test system: Escherichia coli ATCC 10536; assay: Antibacterial activity, MIC; type: cell-based; conditions: ATCC10536, agar two-fold dilution, 37° C., 20 hours
How it was run: as §1

[23] = test system: Proteus vulgaris ATCC 6059; assay: Antibacterial activity, MIC; type: cell-based; conditions: ATCC6059, ATCC 6059, agar two-fold dilution, 37° C., 20 hours, read-out: MIC
How it was run: as §1

[24] = test system: Shigella sonnei ATCC 11060; assay: Antibacterial activity, MIC; type: cell-based; conditions: ATCC11060, ATCC 11060, agar two-fold dilution, 37° C., 20 hours, read-out: MIC
How it was run: as §1

[25] = test system: Pseudomonas aeruginosa ATCC 25619; assay: Antibacterial activity, MIC; type: cell-based; conditions: ATCC25619, ATCC 25619, agar two-fold dilution, 37° C., 20 hours, read-out: MIC
How it was run: as §1

[26] = test system: Acinetobacter calcoaceticus ATCC 15473; assay: Antibacterial activity, MIC; type: cell-based; conditions: ATCC15473, ATCC 15473, agar two-fold dilution, 37° C., 20 hours, read-out: MIC
How it was run: as §1

[27] = test system: Escherichia coli ATCC 25922; assay: Antibacterial activity, MIC; type: cell-based; conditions: ATCC25922, agar two-fold dilution, 37° C., 20 hours
How it was run: as §1

Compound | MIC [3] [µg/mL] | MIC [4] [µg/mL] | MIC [5] [µg/mL] | MIC [6] [µg/mL] | MIC [7] [µg/mL] | MIC [8] [µg/mL] | MIC [9] [µg/mL] | MIC [10] [µg/mL] | MIC [11] [µg/mL] | MIC [12] [µg/mL] | MIC [13] [µg/mL] | MIC [14] [µg/mL] | MIC [15] [µg/mL] | MIC [16] [µg/mL] | MIC [17] [µg/mL] | MIC [18] [µg/mL] | MIC [19] [µg/mL] | MIC [20] [µg/mL] | MIC [21] [µg/mL] | MIC [22] [µg/mL] | other results
CC[n+]1c(N)cc(N)nc1SCC1=C(C(=O)[O-])N2C(=O)C(NC(=O)/C(=N\OCC(=O)O)c3csc(N)n3)C2SC1 (stereo not drawn) [Compound I-8] | 4 (≈ 6.56 µM) | ≤ 0.008 | 2 (≈ 3.28 µM) | 0.016 (≈ 0.0262 µM) | ≤ 0.008 | 4 (≈ 6.56 µM) | 64 (≈ 105 µM) | 1 (≈ 1.64 µM) | 0.5 (≈ 0.82 µM) | 0.13 (≈ 0.213 µM) | 0.031 (≈ 0.0508 µM) | 0.063 (≈ 0.103 µM) | 0.031 (≈ 0.0508 µM) | 0.016 (≈ 0.0262 µM) | 2 (≈ 3.28 µM) | 1 (≈ 1.64 µM) | 0.031 (≈ 0.0508 µM) | 0.016 (≈ 0.0262 µM) | > 128 | 0.031 (≈ 0.0508 µM) | concentration at 1 h ([1]; 60 min, read-out: Plasma Conc.): 8700 ng/mL; concentration at 2 h ([1]; 120 min, read-out: Plasma Conc.): 2700 ng/mL; AUC ([1]; two compartment model): 43400 ng·h/mL; half-life ([1]; two compartment model, read-out: T1/2 (α)): 6 min; half-life ([1]; two compartment model, read-out: T1/2 (β)): 32 min; concentration at 1 min ([2]; 1 min): 121000 ng/mL; concentration at 2.5 min ([2]; 2.5 min): 92000 ng/mL; concentration at 5 min ([2]; 5 min): 64000 ng/mL; concentration at 10 min ([2]; 10 min): 48000 ng/mL; concentration at 20 min ([2]; 20 min): 36000 ng/mL; concentration at 40 min ([2]; 40 min): 15000 ng/mL; MIC [23]: 0.016 µg/mL (≈ 0.0262 µM); MIC [24]: 0.031 µg/mL (≈ 0.0508 µM); MIC [25]: 2 µg/mL (≈ 3.28 µM); MIC [26]: 8 µg/mL (≈ 13.1 µM); MIC [27]: 0.031 µg/mL (≈ 0.0508 µM)
COc1cccc(OC)c1-[n+]1c(N)cc(N)nc1SCC1=C(C(=O)[O-])N2C(=O)C(NC(=O)/C(=N\OC(C)(C)C(=O)O)c3csc(N)n3)C2SC1 (stereo not drawn) [Compound I-43] | 8 (≈ 10.7 µM) | 0.25 (≈ 0.335 µM) | 4 (≈ 5.36 µM) | 0.031 (≈ 0.0416 µM) | 0.031 (≈ 0.0416 µM) | 4 (≈ 5.36 µM) | 32 (≈ 42.9 µM) | 2 (≈ 2.68 µM) | 0.25 (≈ 0.335 µM) | 0.25 (≈ 0.335 µM) | 1 (≈ 1.34 µM) | 2 (≈ 2.68 µM) | 0.5 (≈ 0.67 µM) | 0.25 (≈ 0.335 µM) | 2 (≈ 2.68 µM) | 2 (≈ 2.68 µM) | 2 (≈ 2.68 µM) | 0.25 (≈ 0.335 µM) | > 128 | 0.5 (≈ 0.67 µM) | MIC [23]: 0.5 µg/mL (≈ 0.67 µM); MIC [24]: 0.5 µg/mL (≈ 0.67 µM); MIC [25]: 4 µg/mL (≈ 5.36 µM); MIC [26]: 32 µg/mL (≈ 42.9 µM); MIC [27]: 0.5 µg/mL (≈ 0.67 µM)
CC[n+]1c(N)cc(N)nc1SCC1=C(C(=O)[O-])N2C(=O)C(NC(=O)/C(=N\OC)c3nsc(N)n3)C2SC1 (stereo not drawn) [Compound I-25] | 16 (≈ 28.2 µM) | 0.031 (≈ 0.0547 µM) | 4 (≈ 7.06 µM) | 0.016 (≈ 0.0282 µM) | 0.031 (≈ 0.0547 µM) | 0.5 (≈ 0.882 µM) | 32 (≈ 56.5 µM) | 1 (≈ 1.76 µM) | 0.13 (≈ 0.229 µM) | 0.031 (≈ 0.0547 µM) | 0.13 (≈ 0.229 µM) | 0.25 (≈ 0.441 µM) | 1 (≈ 1.76 µM) | 0.031 (≈ 0.0547 µM) | 0.5 (≈ 0.882 µM) | 0.13 (≈ 0.229 µM) | 0.25 (≈ 0.441 µM) | 0.031 (≈ 0.0547 µM) | 32 (≈ 56.5 µM) | 0.13 (≈ 0.229 µM) | MIC [23]: 1 µg/mL (≈ 1.76 µM); MIC [24]: 0.13 µg/mL (≈ 0.229 µM); MIC [25]: 4 µg/mL (≈ 7.06 µM); MIC [26]: 2 µg/mL (≈ 3.53 µM); MIC [27]: 0.13 µg/mL (≈ 0.229 µM)
C=CCO/N=C(\C(=O)NC1C(=O)N2C(C(=O)[O-])=C(CSc3nc(N)cc(N)[n+]3CC)CSC12)c1csc(N)n1 (stereo not drawn) [Compound I-50] | 4 (≈ 6.76 µM) | 0.016 (≈ 0.027 µM) | 4 (≈ 6.76 µM) | ≤ 0.008 | ≤ 0.008 | 0.13 (≈ 0.22 µM) | 8 (≈ 13.5 µM) | 0.5 (≈ 0.845 µM) | 0.13 (≈ 0.22 µM) | ≤ 0.008 | 0.13 (≈ 0.22 µM) | 0.5 (≈ 0.845 µM) | 0.25 (≈ 0.423 µM) | 0.031 (≈ 0.0524 µM) | 0.13 (≈ 0.22 µM) | 0.063 (≈ 0.106 µM) | 0.25 (≈ 0.423 µM) | ≤ 0.008 | 8 (≈ 13.5 µM) | 0.13 (≈ 0.22 µM) | MIC [23]: 0.25 µg/mL (≈ 0.423 µM); MIC [24]: 0.13 µg/mL (≈ 0.22 µM); MIC [25]: 1 µg/mL (≈ 1.69 µM); MIC [26]: 4 µg/mL (≈ 6.76 µM); MIC [27]: 0.13 µg/mL (≈ 0.22 µM)
